Patent US20160162632A1, “METHOD OF SCREENING REACTIONS OR BIOLOGICAL PATHWAYS INDUCED BY COMPOUND” (Samsung Electronics Co., Ltd., priority 2014, published 2016)

System: biochemical pathways with which genes with a change in expression level are associated
Assay: Selection among predicted reactions using differentially expressed genes (DEGs) by dapsone and DAVID pathway annotation
Type: cell-based
Details: reaction included in the "arginine and prolyl metabolism" pathway from DEGs; FIG. 7
Excerpt: Genes that are differentially expressed (differentially expressed genes, DEGs) by dapsone were experimentally determined. Information about biochemical pathways to which the DEGs are involved was obtained by a functional annotation tool of bioinformatics resources (DAVID Bioinformatics Resources version 6.7 operated by the National Institute of Allergy and Infectious Diseases ([…]), Bethesda, Md.; see Huang D W, Sherman B T, Lempicki R A. “Systematic and integrative analysis of large gene lists using DAVID Bioinformatics Resources,” Nature Protoc. 2009; 4(1):44-57; Huang D W, Sherman B T, Lempicki R A. “Bioinformatics enrichment tools: paths toward the comprehensive functional analysis of large gene lists,” Nucleic Acids Res. 2009; 37(1):1-13).
The term “Term” refers to a pathway related to a gene list. The terms “Genes” and “Count” denotes the numbers of genes included in the corresponding terms. The length of the square in the column for “Genes” indicates the number of genes included in the corresponding terms. % refers to a ratio of genes included in the corresponding terms to genes input as DEGs of dapson. These pathways were identified in terms of whether each of the predicted reaction as described in Example 2.1. is included therein.

Q: For `Nc1ccc(S(=O)(=O)c2ccc(N)cc2)cc1` [dapsone, 4,4′-diaminodiphenylsulfone], which “enzyme reaction determined as induced in a cell by treatment” value is on record?
A: ATP:creatine N-phosphotransferase reaction
